Results taken from PubChem BioAssay AID248 (DTP/NCI, 2004).
Several values for one entry are separate records, joined by “and”; a condition that tells them apart may be missing. Identical values can stand only once. Inconclusive results and toxic doses are left out.

System: L1210 leukemia ip in BDF1 mice, survival T/C
Experiment: NCI In Vivo Anticancer Drug Screen. Data for tumor model L1210 Leukemia (intraperitoneal) in B6D2F1 (BDF1) mice
Settings: endpoint: mean survival time, higher = longer survival
Outline: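 Mice bearing the transplanted tumor received compound or vehicle. Survival of the treated group was divided by that of the vehicle-treated control group to give the ratio.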

[1] = dose: 100.0 mg/kg/injection, schedule: Q04DX003 (ip), vehicle: saline with Tween-80
[2] = dose: 200.0 mg/kg/injection, schedule: Q04DX003 (ip), vehicle: saline with Tween-80
[3] = dose: 400.0 mg/kg/injection, schedule: Q04DX003 (ip), vehicle: saline with Tween-80
[4] = dose: 100.0 mg/kg/injection, schedule: Q04DX003 (ip), vehicle: saline
[5] = dose: 100.0 mg/kg/injection, schedule: Q01DX009 (ip), vehicle: saline
[6] = dose: 400.0 mg/kg/injection, schedule: Q01DX009 (ip), vehicle: saline
[7] = dose: 100.0 mg/kg/injection, schedule: Q01DX001 (ip), vehicle: saline

For ClCC[N-]CC[N-]CCCl.ClCC[N-]CC[N-]CCCl.[O-][Cl+3]([O-])([O-])O.[Zn+2], the T/C (dose: 5.0 mg/kg/injection, schedule: Q01DX009 (ip), vehicle: Klucel (hydroxypropylcellulose) (HPC)) was 102 % of control, the T/C (dose: 5.0 mg/kg/injection, schedule: Q03DX003 (ip), vehicle: saline) was 95 % of control and the T/C (dose: 5.0 mg/kg/injection, schedule: Q## X003 (ip), vehicle: saline) was 95 % of control. For the same compound, the T/C (dose: 9.0 mg/kg/injection, schedule: Q01DX009 (ip), vehicle: Klucel (hydroxypropylcellulose) (HPC)) was 94 % of control, the T/C (dose: 10.0 mg/kg/injection, schedule: Q01DX009 (ip), vehicle: Klucel (hydroxypropylcellulose) (HPC)) was 97 % of control and the T/C (dose: 10.0 mg/kg/injection, schedule: Q03DX003 (ip), vehicle: saline) was 104 % of control. The T/C (dose: 10.0 mg/kg/injection, schedule: Q## X003 (ip), vehicle: saline) was 104 % of control, the T/C (dose: 18.0 mg/kg/injection, schedule: Q01DX009 (ip), vehicle: Klucel (hydroxypropylcellulose) (HPC)) was 100 % of control and the T/C (dose: 20.0 mg/kg/injection, schedule: Q01DX009 (ip), vehicle: Klucel (hydroxypropylcellulose) (HPC)) was 116 % of control. The T/C (dose: 20.0 mg/kg/injection, schedule: Q03DX003 (ip), vehicle: saline) was 121 % of control, the T/C (dose: 20.0 mg/kg/injection, schedule: Q## X003 (ip), vehicle: saline) was 121 % of control and the T/C (dose: 40.0 mg/kg/injection, schedule: Q03DX003 (ip), vehicle: saline) was 161 % of control. For the same compound, the T/C (dose: 40.0 mg/kg/injection, schedule: Q## X003 (ip), vehicle: saline) was 161 % of control and the T/C (dose: 80.0 mg/kg/injection, schedule: Q03DX003 (ip), vehicle: saline) was 80 % of control.
With COc1ccc(-c2c(C)c(C)[nH]c(=O)c2C(=O)O)c(OCc2ccccc2)c1OC the T/C (dose: 100.0 mg/kg/injection, schedule: Q01DX009 (ip), vehicle: saline with Tween-80) was 100 % of control, the T/C (dose: 200.0 mg/kg/injection, schedule: Q01DX009 (ip), vehicle: saline with Tween-80) was 100 % of control and the T/C (dose: 400.0 mg/kg/injection, schedule: Q01DX009 (ip), vehicle: saline with Tween-80) was 97 % of control.
For CCCCCCCCc1cc[n+](C2=C([O-])c3ccccc3C(=O)C2=O)cc1, the T/C (dose: 1.5 mg/kg/injection, schedule: Q01DX009 (ip), vehicle: saline) was 106 % of control, the T/C (dose: 3.0 mg/kg/injection, schedule: Q01DX009 (ip), vehicle: saline) was 95 % of control and the T/C (dose: 6.0 mg/kg/injection, schedule: Q01DX009 (ip), vehicle: saline) was 106 % of control.
With COc1c(C)c(C)c(OC(C)=O)c(C)c1Br the T/C [1] was 96 % of control, the T/C [2] was 89 % of control and the T/C [3] was 91 % of control.
COc1ccc(NC(=O)NO)cc1 was tested, and the T/C (dose: 50.0 mg/kg/injection, schedule: Q04DX002 (ip), vehicle: saline with Tween-80) was 108 % of control, the T/C (dose: 100.0 mg/kg/injection, schedule: Q04DX002 (ip), vehicle: saline with Tween-80) was 101 % of control and the T/C (dose: 200.0 mg/kg/injection, schedule: Q04DX002 (ip), vehicle: saline with Tween-80) was 108 % of control.
CCN(O)C(N)=O was tested, and the T/C (dose: 34.5 mg/kg/injection, schedule: Q01DX009 (ip), vehicle: saline) was 107 % of control, the T/C (dose: 52.0 mg/kg/injection, schedule: Q01DX009 (ip), vehicle: saline) was 111 % of control and the T/C (dose: 62.0 mg/kg/injection, schedule: Q03HX024 (ip), vehicle: saline) was 101 % of control. The T/C (dose: 78.0 mg/kg/injection, schedule: Q01DX009 (ip), vehicle: saline) was 113 % of control, the T/C (dose: 117.0 mg/kg/injection, schedule: Q01DX009 (ip), vehicle: saline) was 110 % of control and 122 % of control (2×) and the T/C (dose: 125.0 mg/kg/injection, schedule: Q03HX024 (ip), vehicle: saline) was 98 % of control. For the same compound, the T/C (dose: 178.0 mg/kg/injection, schedule: Q01DX009 (ip), vehicle: saline) was 112 % of control and the T/C (dose: 600.0 mg/kg/injection, schedule: Q01DX009 (ip), vehicle: saline) was 166 % of control and 167 % of control.
In the case of CCCCSP(Oc1ccccc1)SCCCC, the T/C (dose: 100.0 mg/kg/injection, schedule: Q01DX009 (ip), vehicle: Klucel (hydroxypropylcellulose) (HPC)) is reported as 89 % of control.
CCOC(=O)CSCn1ncc2ccc([N+](=O)[O-])cc21 was tested, and the T/C (dose: 100.0 mg/kg/injection, schedule: Q01DX001 (ip), vehicle: other) was 95 % of control, the T/C (dose: 200.0 mg/kg/injection, schedule: Q01DX001 (ip), vehicle: other) was 95 % of control and the T/C (dose: 400.0 mg/kg/injection, schedule: Q01DX001 (ip), vehicle: other) was 97 % of control.
With CCCCNC(C)C(=O)c1ccccc1 (stereo unspecified) the T/C (dose: 12.5 mg/kg/injection, schedule: Q04DX003 (ip), vehicle: saline) was 100 % of control, the T/C (dose: 25.0 mg/kg/injection, schedule: Q01DX009 (ip), vehicle: saline) was 101 % of control and the T/C (dose: 25.0 mg/kg/injection, schedule: Q04DX003 (ip), vehicle: saline) was 90 % of control. For the same compound, the T/C (dose: 50.0 mg/kg/injection, schedule: Q01DX009 (ip), vehicle: saline) was 101 % of control, the T/C (dose: 50.0 mg/kg/injection, schedule: Q04DX003 (ip), vehicle: saline) was 100 % of control and the T/C [4] was 94 % of control.
In the case of COc1ccccc1CCN, the T/C (dose: 100.0 mg/kg/injection, schedule: Q04DX002 (ip), vehicle: saline) is reported as 112 % of control and the T/C (dose: 200.0 mg/kg/injection, schedule: Q04DX002 (ip), vehicle: saline) is reported as 93 % of control and 108 % of control.
In the case of CC1=NN(c2ccccc2)C(=O)C1N=Nc1ccc(S(=O)(=O)Nc2ncccn2)cc1 (stereo unspecified), the T/C (dose: 100.0 mg/kg/injection, schedule: Q01DX001 (ip), vehicle: carboxymethylcellulose (CMC)) is reported as 100 % of control, the T/C (dose: 200.0 mg/kg/injection, schedule: Q01DX001 (ip), vehicle: carboxymethylcellulose (CMC)) is reported as 94 % of control and the T/C (dose: 400.0 mg/kg/injection, schedule: Q01DX001 (ip), vehicle: carboxymethylcellulose (CMC)) is reported as 89 % of control.
For CCOC(=O)c1cc(OC(C)=O)c2c(ccc3cc(OC)ccc32)c1CC, the T/C [5] was 91 % of control, the T/C [4] was 93 % of control and the T/C (dose: 200.0 mg/kg/injection, schedule: Q04DX003 (ip), vehicle: saline) was 96 % of control. For the same compound, the T/C [6] was 91 % of control and the T/C (dose: 400.0 mg/kg/injection, schedule: Q04DX003 (ip), vehicle: saline) was 91 % of control.
For CC(C)(C(=O)O)c1ccc(-c2ccccc2)cc1, the T/C [1] was 102 % of control, the T/C [2] was 97 % of control and the T/C [3] was 106 % of control.
With O=C1CC(c2ccc(Cl)cc2)C(=O)O1 (stereo unspecified) the T/C (dose: 100.0 mg/kg/injection, schedule: Q01DX001 (ip), vehicle: acetone) was 98 % of control, the T/C (dose: 100.0 mg/kg/injection, schedule: Q04DX003 (ip), vehicle: alcohol) was 98 % of control and the T/C (dose: 200.0 mg/kg/injection, schedule: Q01DX001 (ip), vehicle: acetone) was 101 % of control. The T/C (dose: 200.0 mg/kg/injection, schedule: Q04DX003 (ip), vehicle: alcohol) was 104 % of control and the T/C (dose: 400.0 mg/kg/injection, schedule: Q01DX001 (ip), vehicle: acetone) was 94 % of control.
In the case of C/C=C/C(=O)C12CCCCCCCCCC(=C1N1CCCCC1)C(=O)CC2C (stereo unspecified), the T/C [7] is reported as 93 % of control, the T/C [5] is reported as 90 % of control and the T/C (dose: 200.0 mg/kg/injection, schedule: Q01DX001 (ip), vehicle: saline) is reported as 98 % of control. The T/C (dose: 200.0 mg/kg/injection, schedule: Q01DX009 (ip), vehicle: saline) was 92 % of control, the T/C (dose: 400.0 mg/kg/injection, schedule: Q01DX001 (ip), vehicle: saline) was 98 % of control and the T/C [6] was 98 % of control.
For CCOc1ccc([N+](=O)[O-])cc1CN(CC)CC, the T/C (dose: 5.0 mg/kg/injection, schedule: Q01DX009 (ip), vehicle: saline) was 97 % of control, the T/C (dose: 9.5 mg/kg/injection, schedule: Q01DX001 (ip), vehicle: saline) was 109 % of control and the T/C (dose: 10.0 mg/kg/injection, schedule: Q01DX009 (ip), vehicle: saline) was 95 % of control. The T/C (dose: 10.0 mg/kg/injection, schedule: Q04DX003 (ip), vehicle: saline) was 97 % of control, the T/C (dose: 19.0 mg/kg/injection, schedule: Q01DX001 (ip), vehicle: saline) was 106 % of control and the T/C (dose: 20.0 mg/kg/injection, schedule: Q01DX009 (ip), vehicle: saline) was 89 % of control. The T/C (dose: 20.0 mg/kg/injection, schedule: Q04DX003 (ip), vehicle: saline) was 102 % of control and the T/C (dose: 38.0 mg/kg/injection, schedule: Q01DX001 (ip), vehicle: saline) was 98 % of control.
In the case of NC(=S)NN=C1CCC1, the T/C (dose: 50.0 mg/kg/injection, schedule: Q01DX001 (ip), vehicle: saline) is reported as 98 % of control and the T/C [7] is reported as 93 % of control and 91 % of control.
OCCN1CCC(CCCC2CCN(CCO)CC2)CC1 was tested, and the T/C (dose: 10.0 mg/kg/injection, schedule: Q01DX Z (ip), vehicle: saline) was 94 % of control, the T/C (dose: 30.0 mg/kg/injection, schedule: Q01DX Z (ip), vehicle: saline) was 92 % of control and the T/C (dose: 100.0 mg/kg/injection, schedule: Q01DX Z (ip), vehicle: saline) was 94 % of control.
